Among the data in ChEMBL document CHEMBL1159103, “Discovery of biaryl inhibitors of H+/K+ ATPase” (Bioorg Med Chem Lett, 2010) are pIC50 values, retold here.

Bounds are passed on as bounds.

The nature of this test: Inhibition of H(+)/K(+) ATPase.
For the compound `Cc1cccc(C)c1-c1ccc(-c2nc(C)c(C)[nH]2)o1`, the pIC50 (in general, −log10 of the IC50, conventionally taken in molar units) is given as 4.9.

The compound `COc1c(-c2c(C)cccc2C)cc2c(c1-c1nc(C)c(C)[nH]1)OCC2` gave a pIC50 of 5.5.

In the case of `Cc1cccc(C)c1-c1ccc(OC(F)F)c(-c2nc(C)c(C)[nH]2)c1`, the pIC50 worked out at 5.

`Cc1cccc(C)c1-c1cc(-c2nc(C)c(C)[nH]2)cs1` displayed a pIC50 of 4.5.

`Cc1cccc(C)c1-c1ccc(OCc2ccccc2)c(-c2nc(C)c(C)[nH]2)c1` came in with a pIC50 of 5.3.

`Cc1cccc(C)c1-c1cccc(-c2ncc[nH]2)c1` registered a pIC50 of 4.5.

Turning to `CCc1nc(-c2cccc(-c3c(C)cccc3C)c2)[nH]c1CC`, the negative logarithm of the IC50 (pIC50) worked out at 4.8.

`CNCc1cccc(-c2c(C)cccc2C)c1` showed a negative-log IC50 (pIC50) of 4.3.

Turning to `Cc1cccc(C)c1CNc1cccc(-c2nc(C)c(C)[nH]2)c1`, the pIC50 is on record as 4.3.

The compound `Cc1cccc(C)c1-c1ccc(-c2nc(C)c(C)[nH]2)s1` had a negative-log IC50 (pIC50) of 4.1.

`Cc1cccc(C)c1-c1cccc(-c2cncn2C)c1`: the pIC50 is 4.4.

In turn, `COc1ccc(-c2c(C)cccc2C)cc1-c1nc(C)c(C)[nH]1` had a negative logarithm of the IC50 (pIC50) of 6.1.

As to `Cc1nc(-c2cccc(C(=O)Nc3ccccc3)c2)[nH]c1C`, the pIC50 is given as 4.

Compound `COc1cc(-c2c(C)cccc2C)cc(-c2nc(C)c(C)[nH]2)c1OC` yielded a pIC50 of 4.6.

With `Cc1ccc(-c2nc(C)c(C)[nH]2)cc1-c1c(C)cccc1C`, the negative-log IC50 (pIC50) amounted to 4.9.

Take `Cc1nc(-c2cccc(/C=C/c3ccccc3)c2)[nH]c1C`: the pIC50 amounted to 4.4.

Turning to `CCOc1ccc(-c2c(C)cccc2C)cc1-c1nc(C)c(C)[nH]1`, the negative logarithm of the IC50 (pIC50) amounted to 5.6.

`Cc1cccc(C)c1-c1cccc(-c2nc(C)c(C)n2C)c1` showed a negative logarithm of the IC50 (pIC50) of 4.6.

In the case of `Cc1cccc(C)c1-c1cccc(-c2nc3ccccc3[nH]2)c1`, the pIC50 is on record as 4.4.

For `Cc1cccc(C)c1-c1ccc(-c2nc(C)c(C)[nH]2)cc1`, the pIC50 amounted to 4.4.

Compound `Cc1cccc(C)c1-c1ccc(OCC(N)=O)c(-c2nc(C)c(C)[nH]2)c1` had a negative-log IC50 (pIC50) of 5.7.

Compound `COc1c(-c2c(C)cccc2C)cc2ccoc2c1-c1nc(C)c(C)[nH]1` returned a negative logarithm of the IC50 (pIC50) of 5.4.

Compound `Cc1nc(-c2cccc(CCc3ccccc3)c2)[nH]c1C` showed a pIC50 of 4.3.

Compound `Cc1cccc(C)c1-c1cc(-c2nc(C)c(C)[nH]2)co1` came in with a pIC50 below 4.

As for `Cc1cccc(C)c1-c1ccc(O)c(-c2nc(C)c(C)[nH]2)c1`, the negative logarithm of the IC50 (pIC50) was found to be 5.7.

The compound `CCCn1ccnc1-c1cccc(-c2c(C)cccc2C)c1` had a pIC50 of 4.3.

Regarding `Cc1cccc(C)c1-c1cc(-c2nc(C)c(C)[nH]2)ccc1-c1ccncc1`, the negative-log IC50 (pIC50) was below 4.

The compound `COc1c(-c2nc(C)c(C)[nH]2)cccc1-c1c(C)cccc1C` returned a negative logarithm of the IC50 (pIC50) below 4.

With `Cc1ccccc1-c1cccc(-c2nc(C)c(C)[nH]2)c1`, the negative-log IC50 (pIC50) is 5.1.

With `Cc1cccc(C)c1Nc1cccc(-c2nc(C)c(C)[nH]2)c1`, the negative logarithm of the IC50 (pIC50) came out at 4.9.

`COc1ncccc1-c1cc(-c2nc(C)c(C)[nH]2)cc(-c2c(C)cccc2C)c1` showed a pIC50 of 4.8.

`Cc1cccc(C)c1-c1cccc(N2CCN(C)CC2)c1` registered a pIC50 of 4.4.

As for `Cc1nc(-c2cccc(-c3ccccc3)c2)[nH]c1C`, the negative-log IC50 (pIC50) amounted to 4.7.

As to `Cc1nc(-c2ccccc2-c2ccccc2)[nH]c1C`, the negative-log IC50 (pIC50) came to 4.2.

As for `Cc1cccc(C)c1-c1cccc(-c2cc(N)ccn2)c1`, the negative-log IC50 (pIC50) turned out to be 4.5.

Consider `CCc1cccc(CC)c1-c1cccc(-c2nc(C)c(C)[nH]2)c1`, for which the pIC50 was determined as 5.1.

Compound `Cc1cccc(C)c1-c1cccc(-c2cn(C)c(C)n2)c1` showed a pIC50 of 4.8.

Consider `Cc1cccc(C)c1-c1cccc(-c2nccn2C)c1`, for which the negative logarithm of the IC50 (pIC50) was found to be 5.2.

For the compound `COC(=O)COc1ccc(-c2c(C)cccc2C)cc1-c1nc(C)c(C)[nH]1`, the pIC50 stood at 5.9.

For `CCCn1c(-c2cc(-c3c(C)cccc3C)ccc2OC)nc(C)c1C`, the negative-log IC50 (pIC50) stood at 4.9.

The compound `Cc1cscc1-c1cccc(-c2nc(C)c(C)[nH]2)c1` had a pIC50 of 4.8.

In the case of `Cc1cccc(C)c1-c1cccc(-c2nc(C)c(C)[nH]2)c1`, the pIC50 is 5.2.

In turn, `COc1ccc(-c2nc(C)c(C)[nH]2)cc1-c1c(C)cccc1C` gave a negative logarithm of the IC50 (pIC50) of 4.9.
